Measured values reported in patent US20230027361A1, “METTL3 MODULATORS” (priority 2019, published 2023).
Like-named read-outs stand apart in the source and are kept apart here.

Columns and labels:
METTL3/METTL14 = METTL3/METTL14 (Homo sapiens, UniProt Q86U44); assay: METTL3-14 Standard Enzyme Assay (METTL3 biochemical assay)
Method: Assays were performed in a 25 μl-volume in 384-well V-bottom polypropylene microplates (Greiner Bio-One, cat. No. 781280) at ambient temperature. Optimized 1× assay buffer was 20 mM HEPES pH 7.5, 50 mM KCl, 250 μM MgCl2, 1 mM DTT, 0.01% Tween, 0.01% BSG, 0.004 U/μl RNAseOUT (cat. No. 10777019, ThermoFisher Scientific, Waltham, Mass.). For compound screening METTL3/METTL14 (final concentration, f.c.=2.5 nM) was added using a Multidrop Combi (ThermoFisher Scientific, Waltham, Mass.) and preincubated for 5 min. Reactions were started by adding 3′ biotinylated RNA ([…]-biotin) (f.c.=100 nM) and 3H-SAM (f.c.=100 nM) substrates. Reactions proceeded for 30 minutes and were quenched with excess non-radioactive SAM (f.c.=15 μM). The reactions were then transferred to streptavidin-coated flashplates and incubated for 2 hours at 25° C. Following two washing cycles with 0.1% Tween-20, the plates were sealed and read on a TopCount (PerkinElmer, Waltham, Mass.) plate-based scintillation counter. For determination of kinetic parameters, reaction times were optimized so that measurements were taken during the initial velocity phase of the reaction.

PRMT5-MEP50 = PRMT5-MEP50 (Homo sapiens, UniProt O14744); assay: PRMT5 Assay (PRMT5 biochemical assay)
Method: Assays were performed in a 25 μl-volume in 384-well V-bottom polypropylene microplates (Greiner Bio-One, cat. No. 781280) at ambient temperature. Optimized 1× assay buffer was 20 mM Tris-HCl pH 8.0, 1 mM DTT, […]. For compound screening PRMT5-MEP50 (final concentration, f.c.=2.5 nM) was added using a Multidrop Combi (ThermoFisher Scientific, Waltham, Mass.) and preincubated for 5 min. Reactions were started by adding 3′ biotinylated histone H4 peptide acetylated on serine 1 (Ac-[…]-Biotin) (f.c.=100 nM) and 3H-SAM (f.c.=250 nM) substrates. Reactions proceeded for 60 minutes and were quenched with excess non-radioactive SAM (f.c.=15 μM). The reactions were then transferred to streptavidin-coated flashplates and incubated for 2 hours at 25° C. Following two washing cycles with 0.1% Tween-20, the plates were sealed and read on a TopCount (PerkinElmer, Waltham, Mass.) plate-based scintillation counter. For determination of kinetic parameters, reaction times were optimized so that measurements were taken during the initial velocity phase of the reaction.

[1] = METTL3 biochemical assay, read-out: METTL3 IC50
[2] = PRMT5 biochemical assay, read-out: PRMT5 IC50

METTL3/METTL14, sequence (Q86U44 whole entry, species assumed): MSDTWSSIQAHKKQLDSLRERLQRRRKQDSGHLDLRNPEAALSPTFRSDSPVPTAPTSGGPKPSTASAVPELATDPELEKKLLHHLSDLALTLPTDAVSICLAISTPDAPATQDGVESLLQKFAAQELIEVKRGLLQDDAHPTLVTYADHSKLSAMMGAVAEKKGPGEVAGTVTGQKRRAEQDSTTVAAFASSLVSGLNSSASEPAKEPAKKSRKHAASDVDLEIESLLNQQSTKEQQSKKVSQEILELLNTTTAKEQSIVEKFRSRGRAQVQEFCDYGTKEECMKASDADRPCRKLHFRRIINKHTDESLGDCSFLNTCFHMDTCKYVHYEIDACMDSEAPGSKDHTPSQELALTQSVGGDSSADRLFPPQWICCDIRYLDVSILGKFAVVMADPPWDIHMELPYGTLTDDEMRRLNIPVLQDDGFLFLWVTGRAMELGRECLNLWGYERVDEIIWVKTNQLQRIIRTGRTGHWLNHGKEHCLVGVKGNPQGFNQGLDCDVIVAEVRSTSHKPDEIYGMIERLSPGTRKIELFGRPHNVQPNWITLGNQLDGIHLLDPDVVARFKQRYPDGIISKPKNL
METTL3/METTL14, sequence (Q9HCE5 whole entry partner, species assumed): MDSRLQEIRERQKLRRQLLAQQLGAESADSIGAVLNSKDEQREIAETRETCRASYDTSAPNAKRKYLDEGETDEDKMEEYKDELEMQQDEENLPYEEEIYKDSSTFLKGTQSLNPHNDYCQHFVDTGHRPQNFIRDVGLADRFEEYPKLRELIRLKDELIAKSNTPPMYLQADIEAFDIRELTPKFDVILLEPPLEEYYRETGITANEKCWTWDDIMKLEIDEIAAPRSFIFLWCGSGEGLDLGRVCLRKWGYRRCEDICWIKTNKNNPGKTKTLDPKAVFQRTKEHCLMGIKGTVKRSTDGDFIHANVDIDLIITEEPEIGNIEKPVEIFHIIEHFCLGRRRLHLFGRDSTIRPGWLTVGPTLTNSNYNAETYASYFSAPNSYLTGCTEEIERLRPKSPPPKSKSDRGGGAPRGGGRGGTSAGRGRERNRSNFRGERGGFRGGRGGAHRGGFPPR
PRMT5-MEP50, sequence (O14744 whole entry): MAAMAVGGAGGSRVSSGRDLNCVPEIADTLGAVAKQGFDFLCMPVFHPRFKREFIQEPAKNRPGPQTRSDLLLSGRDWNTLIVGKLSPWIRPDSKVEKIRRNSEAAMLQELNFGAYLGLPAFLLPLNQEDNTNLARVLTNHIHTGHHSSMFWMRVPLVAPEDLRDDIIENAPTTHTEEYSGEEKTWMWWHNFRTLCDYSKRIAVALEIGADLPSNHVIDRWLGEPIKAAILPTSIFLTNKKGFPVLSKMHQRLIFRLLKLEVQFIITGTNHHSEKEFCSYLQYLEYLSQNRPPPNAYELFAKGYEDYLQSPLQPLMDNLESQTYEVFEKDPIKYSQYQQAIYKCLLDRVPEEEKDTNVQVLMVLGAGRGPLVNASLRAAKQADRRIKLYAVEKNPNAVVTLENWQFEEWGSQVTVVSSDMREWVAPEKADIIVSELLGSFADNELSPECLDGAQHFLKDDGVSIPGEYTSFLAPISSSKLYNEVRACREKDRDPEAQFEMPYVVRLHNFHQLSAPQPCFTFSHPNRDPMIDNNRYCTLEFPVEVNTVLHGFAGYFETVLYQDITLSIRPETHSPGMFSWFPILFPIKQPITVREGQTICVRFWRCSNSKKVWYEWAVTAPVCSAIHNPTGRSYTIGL
PRMT5-MEP50, sequence (Q9BQA1 whole entry partner): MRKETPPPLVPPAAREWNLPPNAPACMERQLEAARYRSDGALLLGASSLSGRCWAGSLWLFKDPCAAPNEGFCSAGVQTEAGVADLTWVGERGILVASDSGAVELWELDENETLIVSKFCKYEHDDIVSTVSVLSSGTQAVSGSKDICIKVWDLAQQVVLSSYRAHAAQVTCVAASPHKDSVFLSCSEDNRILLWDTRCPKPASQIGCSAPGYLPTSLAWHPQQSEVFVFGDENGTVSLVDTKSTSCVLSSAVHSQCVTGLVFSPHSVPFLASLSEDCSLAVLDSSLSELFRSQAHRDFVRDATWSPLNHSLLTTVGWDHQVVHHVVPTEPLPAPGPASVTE

SMILES | IC50 (METTL3/METTL14; [1]) | IC50 (METTL3/METTL14) | IC50 (PRMT5-MEP50) | IC50 (PRMT5-MEP50; [2])
CCc1cc(N(C)C2CC2)c2ccc(OC[C@H]3O[C@@H](n4ccc5c(N)ncnc54)C[C@@H]3O)cc2n1 [I-161] | 0.01 to 0.1 µM | – | – | –
CN(CCS(C)(=O)=O)c1ccc2ccc(OC[C@H]3O[C@@H](n4cc(-c5ccn(C)n5)c5c(N)ncnc54)[C@@H](F)[C@@H]3O)cc2n1 [I-166] | – | 0.1 to 1 µM | > 1 µM | –
CCc1nc2cc(OC[C@H]3O[C@@H](n4cc(-c5ccn(C)n5)c5c(N)ncnc54)[C@@H](F)[C@@H]3O)ccc2o1 [I-168] | – | > 1 µM | > 1 µM | –
CCc1nc2cc(OC[C@H]3O[C@@H](n4cc(-c5ccn(C)n5)c5c(N)ncnc54)[C@@H](F)[C@@H]3O)ccc2[nH]1 [I-172] | – | 0.1 to 1 µM | > 1 µM | –
CNc1nc2cc(OC[C@H]3O[C@@H](n4cc(-c5ccn(C)n5)c5c(N)ncnc54)[C@@H](F)[C@@H]3O)ccc2o1 [I-173] | – | 0.1 to 1 µM | > 1 µM | –
Cn1ccc(-c2cn([C@@H]3O[C@H](COc4ccc(C(=O)N5CCNCC5)c(N)c4)[C@@H](O)[C@@H]3F)c3ncnc(N)c23)n1 [I-174] | – | 0.1 to 1 µM | > 1 µM | –
Nc1cc(OC[C@H]2O[C@@H](n3ccc4c(N)ncnc43)[C@@H](F)[C@@H]2O)ccc1C(=O)N1CCNCC1 [I-175] | > 1 µM | – | – | > 1 µM
CNc1nc2cc(OC[C@H]3O[C@@H](n4cc(-c5ccn(C)n5)c5c(N)ncnc54)[C@@H](F)[C@@H]3O)ccc2s1 [I-176] | – | 0.1 to 1 µM | > 1 µM | –
Cn1ccc(-c2cn([C@@H]3O[C@H](COc4ccc5sc(N6CCC6)nc5c4)[C@@H](O)[C@@H]3F)c3ncnc(N)c23)n1 [I-177] | – | 0.01 to 0.1 µM | > 1 µM | –
Cn1ccc(-c2cn([C@H]3C[C@H](O)[C@@H](COc4ccc5ccc(N6CC(N)C6)nc5c4)O3)c3ncnc(N)c23)n1 [I-182] | – | < 0.01 µM | > 1 µM | –
Nc1ncnc2c1ccn2[C@H]1C[C@H](O)[C@@H](COc2ccc3ccc(N4CC(N)C4)nc3c2)O1 [I-184] | 0.1 to 1 µM | – | – | 0.01 to 0.1 µM
Nc1ncnc2c1ccn2[C@@H]1O[C@H](COc2ccc3ccc(NC4CCC4)nc3c2)[C@@H](O)[C@@H]1F [I-185] | < 0.01 µM | – | – | > 1 µM
Cc1ccn(-c2cn([C@@H]3O[C@H](COc4ccc5ccc(N6CC(N)C6)nc5c4)[C@@H](O)[C@@H]3F)c3ncnc(N)c23)n1 [I-186] | – | 0.01 to 0.1 µM | 0.1 to 1 µM | –
Cc1ccn(-c2cn([C@@H]3O[C@H](COc4ccc5ccc(N6CC(O)C6)nc5c4)[C@@H](O)[C@@H]3F)c3ncnc(N)c23)n1 [I-187] | – | < 0.01 µM | > 1 µM | –
Nc1ncnc2c1ccn2[C@@H]1O[C@H](COc2ccc3ccc(N4CC(N)C4)nc3c2)[C@@H](O)[C@@H]1F [I-188] | 0.01 to 0.1 µM | – | – | > 1 µM
Cn1ccc(-c2cn([C@@H]3O[C@H](COc4ccc5ncc(N6CCC6)nc5c4)[C@@H](O)[C@@H]3F)c3ncnc(N)c23)n1 [I-189] | – | 0.01 to 0.1 µM | > 1 µM | –
Nc1ncnc2c1ccn2[C@@H]1O[C@H](CCC2CCNCC2)[C@@H](O)[C@@H]1F [I-192] | 0.1 to 1 µM | – | – | > 1 µM
CNc1ccc2sc(CC[C@H]3O[C@@H](n4ccc5c(N)ncnc54)[C@@H](F)[C@@H]3O)cc2n1 [I-193] | 0.01 to 0.1 µM | – | – | 0.01 to 0.1 µM
Cn1ccc(-c2cn([C@H]3C[C@H](O)[C@@H](CCc4ccc5ccc(N6CCC6)nc5c4)O3)c3ncnc(N)c23)n1 [I-194] | – | < 0.01 µM | > 1 µM | –
CNc1nc2cc(OC[C@H]3O[C@@H](n4cc(-n5cccn5)c5c(N)ncnc54)[C@@H](F)[C@@H]3O)ccc2s1 [I-195] | – | 0.1 to 1 µM | > 1 µM | –
Cn1ccc(-c2cn([C@@H]3O[C@H](COc4ccc5ccc(NC6CNC6)nc5c4)[C@@H](O)[C@@H]3F)c3ncnc(N)c23)n1 [I-196] | – | 0.1 to 1 µM | > 1 µM | –
Cn1ccc(-c2cn([C@@H]3O[C@H](COc4ccc5ccc(N[C@H]6C[C@H](N)C6)nc5c4)[C@@H](O)[C@@H]3F)c3ncnc(N)c23)n1 [I-197] | – | 0.01 to 0.1 µM | 0.1 to 1 µM | –
CCNc1ccc2ccc(CC[C@H]3C[C@@H](n4cc(-n5cccn5)c5c(N)ncnc54)C[C@@H]3O)cc2n1 [I-209] | – | < 0.01 µM | – | –
